Data on eight compounds can be found in ChEMBL document CHEMBL3992486 (Medchemcomm, 2016).

Data set [1] concerns Mycobacterium tuberculosis. Briefly: Antimycobacterial activity against dormant Mycobacterium tuberculosis H37Ra ATCC 25177 after 12 days by XTT dye based two-fold dilution method. The data set is classed as functional. The settings on record: H37Ra ATCC 25177, 288 h.
Data set [2] relates to Mycobacterium tuberculosis. Briefly: Antimycobacterial activity against dormant Mycobacterium bovis BCG ATCC 35743 after 12 days by neutral red dye based two-fold dilution method. The class given is functional. Particulars: BCG str. ATCC 35743, 288 h.
Data set [3] is described as follows: Selectivity index, ratio of GI50 for human MCF7 cells to MIC for dormant Mycobacterium tuberculosis H37Ra ATCC 25177. The data set is classed as toxicity. Particulars: pooled result: one value given for 3 cell lines, strains, targets or settings, read-out: Selectivity Index.
Data set [4] can be described thus: Selectivity index, ratio of GI50 for human MCF7 cells to MIC for dormant Mycobacterium bovis BCG ATCC 35743. The class given is toxicity. Particulars: pooled result: one value given for 3 cell lines, strains, targets or settings, read-out: Selectivity Index.
A short description of data set [5]: Cytotoxicity against human MCF7 cells by MTT assay. The class given is cell-based. For orientation: Formazan colour is commonly taken as a measure of viable cells.
Data set [6] can be described thus: Cytotoxicity against human A549 cells by MTT assay. The data set is classed as cell-based.

Values after ≈ are worked out from the molar mass of the structure shown.

As for `Cc1ccc2cc(C3SCC(=O)N3NC(=O)c3ccncc3)c3nnnn3c2c1` (centres undefined), the MIC – broadly, the least concentration at which growth counts as inhibited – in data set [1] was determined as 2610 µM (≈ 1060 µg/mL); in data set [2], 300 µM (≈ 122 µg/mL). Further, the results for the selectivity ratio in data set [3] and in data set [4] were 94.3 and 833, respectively.

On to `Cc1ccc2c(c1)cc(C1SCC(=O)N1NC(=O)c1ccncc1)c1nnnn12` (centres undefined), for which the MIC in data set [1] was determined as 2140 µM (≈ 868 µg/mL); in data set [2], 8430 µM (≈ 3420 µg/mL). Besides, the selectivity ratio in data set [3] came to 115; in data set [4] it was 29.2.

Regarding `COc1ccc2c(c1)cc(C1SCC(=O)N1NC(=O)c1ccncc1)c1nnnn12` (centres undefined), the MIC in data set [1] turned out to be 990 µM (≈ 417 µg/mL); in data set [2] it was 140 µM (≈ 59 µg/mL). Further, the selectivity ratio in data set [3] came to 238; in data set [4] it was 11.8.

For `COc1ccc2cc(C3SCC(=O)N3NC(=O)c3ccncc3)c3nnnn3c2c1` (centres undefined), the MIC in data set [1] is 1660 µM (≈ 700 µg/mL); in data set [2] it was 360 µM (≈ 152 µg/mL). In addition, the selectivity ratio in data set [3] worked out at 143; in data set [4], 667.

As for `O=C(NN1C(=O)CSC1c1cc2ccccc2n2nnnc12)c1ccncc1` (centres undefined), inhibition of growth in data set [2] (MIC) required 430 µM (≈ 168 µg/mL). Further, the selectivity ratio in data set [3] was determined as 18.9; in data set [4] it was 588.

As for `Cc1cccc2cc(C3SCC(=O)N3NC(=O)c3ccncc3)c3nnnn3c12` (centres undefined), the MIC was determined as 1770 µM (≈ 718 µg/mL) in data set [1] and 510 µM (≈ 207 µg/mL) in data set [2]. For the same compound, the selectivity ratio was determined as 139 in data set [3] and 476 in data set [4].

Take `CC(=O)O[C@H]1C(=O)[C@@]2(C)[C@H]([C@H](OC(=O)c3ccccc3)[C@]3(O)C[C@H](OC(=O)[C@H](O)[C@@H](NC(=O)c4ccccc4)c4ccccc4)C(C)=C1C3(C)C)[C@]1(OC(C)=O)CO[C@@H]1C[C@@H]2O` [PACLITAXEL]: the GI50 – broadly, the concentration at which growth is held to half of that of the control – in data set [5] was 87 µM; in data set [6], 80 µM.

Turning to `CO[C@H]1/C=C/O[C@@]2(C)Oc3c(C)c(O)c4c(O)c(c(/C=N/N5CCN(C)CC5)c(O)c4c3C2=O)NC(=O)/C(C)=C\C=C\[C@H](C)[C@H](O)[C@@H](C)[C@@H](O)[C@@H](C)[C@H](OC(C)=O)[C@@H]1C` [RIFAMPIN], the MIC is 24 µM (≈ 19.8 µg/mL) in data set [1] and 21 µM (≈ 17.3 µg/mL) in data set [2]. For the same compound, the selectivity ratio was more than 5000 in data set [3] and 1750 in data set [4].
